Test results: US8124647B2 (priority 2002, dated 2012)
Like-named read-outs stand apart in the source and are kept apart here.

Key:
[1] = molecular target: T1, human androgen receptor (Homo sapiens, UniProt P10275); experiment: androgenic activity (EC50 and intrinsic activity), transactivation bioassay in CHO-AR-pMMTV-LUC cells (Table 4); format: cell-based; conditions: androgenic activity, read-out: ago EC50
T1 construct: expressed in transfected cells; host or cells: CHO cells, cell line CHO-AR-pMMTV-LUC 1G12-A5-CA
T1 sequence (P10275 1-920): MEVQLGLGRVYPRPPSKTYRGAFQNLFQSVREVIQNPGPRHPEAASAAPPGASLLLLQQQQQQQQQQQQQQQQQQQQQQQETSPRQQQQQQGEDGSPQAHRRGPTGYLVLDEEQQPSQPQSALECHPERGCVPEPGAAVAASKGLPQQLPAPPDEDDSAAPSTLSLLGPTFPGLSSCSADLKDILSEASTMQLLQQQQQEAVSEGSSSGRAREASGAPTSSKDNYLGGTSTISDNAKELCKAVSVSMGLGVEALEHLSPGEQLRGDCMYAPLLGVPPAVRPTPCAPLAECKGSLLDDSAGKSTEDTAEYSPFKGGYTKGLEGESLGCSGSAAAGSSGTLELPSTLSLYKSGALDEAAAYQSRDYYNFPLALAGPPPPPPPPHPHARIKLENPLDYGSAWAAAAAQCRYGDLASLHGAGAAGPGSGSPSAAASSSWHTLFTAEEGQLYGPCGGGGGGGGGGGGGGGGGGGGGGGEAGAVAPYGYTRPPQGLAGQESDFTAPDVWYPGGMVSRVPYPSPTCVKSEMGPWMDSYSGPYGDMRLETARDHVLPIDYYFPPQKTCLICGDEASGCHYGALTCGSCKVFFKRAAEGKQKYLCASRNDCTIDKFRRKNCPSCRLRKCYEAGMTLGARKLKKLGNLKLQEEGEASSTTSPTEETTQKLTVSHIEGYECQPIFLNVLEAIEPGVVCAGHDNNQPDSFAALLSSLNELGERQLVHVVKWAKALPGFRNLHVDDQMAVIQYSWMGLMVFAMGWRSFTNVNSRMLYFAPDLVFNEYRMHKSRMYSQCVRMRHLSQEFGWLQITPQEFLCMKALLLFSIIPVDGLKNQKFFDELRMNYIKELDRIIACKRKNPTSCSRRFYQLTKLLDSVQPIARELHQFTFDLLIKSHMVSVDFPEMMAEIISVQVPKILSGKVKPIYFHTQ
Method: (§1) Compounds were tested for their Androgen Receptor activity in a transactivation assay and in a binding assay.
(§2) The (anti-)androgenic activity of test compounds (EC50 and intrinsic activity) was determined in an in vitro bioassay of Chinese hamster ovary (CHO) cells stably transfected with the human androgen receptor expression plasmid and a reporter plasmid in which the MMTV-promoter is linked to the luciferase reporter gene. The cell-line CHO-AR-pMMTV-LUC 1G12-A5-CA is described in Schoonen et al. (2000), Journal of Steroid Biochemistry and Molecular Biology 74(4):213-222. The antiandrogenic activity of a test compound was determined by the inhibition of the transactivation via the androgen receptor of the enzyme luciferase in the presence of 1 nM DHT (5α-dihydrotestosterone, 17β-hydroxy-5α-androstan-3-one). Intrinsic activity of antiandrogenic activity was determined in the presence of the reference antiandrogen 2-Hydroxy-2-methyl-N-(4-nitro-3-trifluoromethyl-phenyl)-propionamide(Hydroxyflutamide), and set at 100%. For androgenic activity, maximal intrinsic activity in the presence of 100 nM DHT was set at 100%.

[2] = molecular target: T1, human androgen receptor; experiment: cell-based; conditions: antiandrogenic activity, in the presence of 1 nM DHT; read-out: ant EC50
Method: as §1, §2

[3] = molecular target: T1, human androgen receptor; experiment: androgenic activity (EC50, potency, efficacy), transactivation bioassay in CHO-AR-pMMTV-LUC cells in the presence of 0.1 μmol/l onapristone (Table 5); format: cell-based; conditions: for Emax: read-out: ago efficacy; for ago potency: potency expressed as percentage of DHT activity, in the presence of 0.1 μmol/l onapristone
Method: The androgenic activity (EC50, potency, and efficacy) of the compounds in Table 5 was determined in an in vitro bioassay of Chinese hamster ovary (CHO) cells stably transfected with the human androgen receptor expression plasmid and a reporter plasmid in which the MMTV promoter is linked to the luciferase reporter gene. The cell line CHO-AR-pMMTV-LUC 1G12-A5-CA is described in Schoonen et al. (J. Steroid Biochem. Moles. Biol. […]; 74: 213-222). The androgen receptor activity of compounds was determined in the presence of 0.1 μmol/l onapristone. The maximal efficacy in the presence of 100 nmol/l DHT was set as 100%. The potencies are expressed as percentage of DHT activity.

[4] = maximal intrinsic activity, activity in the presence of 100 nM DHT set at 1.00, CHO-AR-pMMTV-LUC cells, 0.1 μmol/l onapristone

| Compound | EC50 [1] [µM] | EC50 [2] [µM] | Emax [3, 4] [%] | ago potency ([3]; CHO-AR-pMMTV-LUC cells) | Emax [3] [%] |
| --- | --- | --- | --- | --- | --- |
| COc1ccc2c(Sc3ccccc3[N+](=O)[O-])cn(Cc3ccc(Cl)s3)c2c1 [Compound 88] | 0.005 to 0.1 | > 10 | – | – | – |
| COc1ccc2c(Sc3ccccc3[N+](=O)[O-])cn(CC3CCCCC3)c2c1 [Compound 89] | 0.005 to 0.1 | < 0.005 | – | – | – |
| O=[N+]([O-])c1ccccc1Sc1cn(Cc2ccccc2)c2ccccc12 [Compound 90] | < 1 | > 10 | – | – | – |
| COc1ccc2c(c1)c(Sc1ccccc1[N+](=O)[O-])cn2Cc1ccccc1 [Compound 91] | > 10 | 1 to 10 | – | – | – |
| COc1ccc2c(Sc3ccccc3[N+](=O)[O-])cn(Cc3ccccc3)c2c1 [Compound 92] | < 0.005 | > 10 | – | – | – |
| COc1ccc2c(Sc3ccccc3[N+](=O)[O-])cn(Cc3ccncc3)c2c1 [Compound 93, 6-Methoxy-3-(2-nitro-phenylsulfanyl)-1-pyridin-4-ylmethyl-1H-indole] | – | – | 50 to 80 | ± (between 0.1% and 1%) | – |
| COc1ccc2c(Sc3ccccc3[N+](=O)[O-])cn(Cc3cc(F)c(F)c(F)c3)c2c1 [Compound 94, 6-Methoxy-3-(2-nitro-phenylsulfanyl)-1-(3,4,5-trifluoro-benzyl)-1H-indole] | – | – | > 80 | + (between 1% and 5%) | – |
| COc1ccc2c(Sc3ccccc3[N+](=O)[O-])cn(Cc3cc(F)cc(F)c3F)c2c1 [Compound 95, 6-Methoxy-3-(2-nitro-phenylsulfanyl)-1-(2,3,5-trifluoro-benzyl)-1H-indole] | – | – | > 80 | ± (between 0.1% and 1%) | – |
| COc1ccc2c(Sc3ccccc3[N+](=O)[O-])cn(Cc3ccc(Cl)nc3)c2c1 [Compound 96, 1-(6-Chloro-pyridin-3-ylmethyl)-6-methoxy-3-(2-nitro-phenylsulfanyl)-1H-indole] | – | – | 20 to 50 | ± (between 0.1% and 1%) | – |
| O=C(CF)Nc1ccc2c(Sc3ccccc3[N+](=O)[O-])cn(Cc3cc(F)cc(F)c3)c2c1 [Compound 97, N-[1-(3,5-Difluoro-benzyl)-3-(2-nitro-phenylsulfanyl)-1H-indol-6-yl]-2-fluoro-acetamide] | – | – | – | + (between 1% and 5%) | > 80 |
| O=C(Nc1ccc2c(Sc3ccccc3[N+](=O)[O-])cn(Cc3cc(F)cc(F)c3)c2c1)C(F)F [Compound 98, N-[1-(3,5-Difluoro-benzyl)-3-(2-nitro-phenylsulfanyl)-1H-indol-6-yl]-2,2-difluoro-acetamide] | – | – | 50 to 80 | ++ (>5%) | – |
| CCC(=O)Nc1ccc2c(Sc3ccccc3[N+](=O)[O-])cn(Cc3cc(F)cc(F)c3)c2c1 [Compound 99, N-[1-(3,5-Difluoro-benzyl)-3-(2-nitro-phenylsulfanyl)-1H-indol-6-yl]-propionamide] | – | – | 50 to 80 | ± (between 0.1% and 1%) | – |
| O=C(CF)Nc1ccc2c(Sc3ccccc3[N+](=O)[O-])cn(Cc3ccccn3)c2c1 [Compound 100, 2-Fluoro-N-[3-(2-nitro-phenylsulfanyl)-1-pyridin-2-ylmethyl-1H-indol-6-yl]-acetamide] | – | – | – | + (between 1% and 5%) | > 80 |
| CC(=O)Nc1ccc2c(Sc3ccccc3[N+](=O)[O-])cn(Cc3ccccn3)c2c1 [Compound 101, N-[3-(2-Nitro-phenylsulfanyl]-1-pyridin-2-ylmethyl-1H-indol-6-yl]-acetamide] | – | – | 50 to 80 | + (between 1% and 5%) | – |
| CCC(=O)Nc1ccc2c(Sc3ccccc3[N+](=O)[O-])cn(Cc3ccccn3)c2c1 [Compound 102, N-[3-(2-Nitro-phenylsulfanyl)-1-pyridin-2-ylmethyl-1H-indol-6-yl]-propionamide] | – | – | 50 to 80 | + (between 1% and 5%) | – |
| CC(=O)Nc1ccc2c(Sc3ccccc3[N+](=O)[O-])cn(Cc3cccnc3)c2c1 [Compound 103, N-[3-(2-Nitro-phenylsulfanyl)-1-pyridin-3-ylmethyl-1H-indol-6-yl]-acetamide] | – | – | 50 to 80 | + (between 1% and 5%) | – |
| O=C(CF)Nc1ccc2c(Sc3ccccc3[N+](=O)[O-])cn(Cc3cccnc3)c2c1 [Compound 104, 2-Fluoro-N-[3-(2-nitro-phenylsulfanyl)-1-pyridin-3-ylmethyl-1H-indol-6-yl]-acetamide] | – | – | – | + (between 1% and 5%) | < 20 |
| CCC(=O)Nc1ccc2c(Sc3ccccc3[N+](=O)[O-])cn(Cc3cccnc3)c2c1 [Compound 105, N-[3-(2-Nitro-phenylsulfany)-1-pyridin-3-ylmethyl-1H-indol-6-yl]-propionamide] | – | – | 20 to 50 | + (between 1% and 5%) | – |
| CS(=O)(=O)Nc1ccc2c(Sc3ccccc3[N+](=O)[O-])cn(Cc3cc(F)cc(F)c3)c2c1 [Compound 106, N-[1-(3,5-Difluoro-benzyl)-3-(2-nitro-phenylsulfanyl)-1H-indol-6-yl]-methanesulfonamide] | – | – | > 80 | + (between 1% and 5%) | – |
| O=[N+]([O-])c1ccccc1Sc1cn(Cc2cc(F)cc(F)c2)c2cc(NS(=O)(=O)c3ccsc3)ccc12 [Compound 107, Thiophene-3-sulfonic acid [1-(3,5-difluoro-benzyl)-3-(2-nitro-phenylsulfanyl)-1H-indol-6-yl]-amide] | – | – | > 80 | + (between 1% and 5%) | – |
| Cn1cnc(S(=O)(=O)Nc2ccc3c(Sc4ccccc4[N+](=O)[O-])cn(Cc4cc(F)cc(F)c4)c3c2)c1 [Compound 108, 1-Methyl-1H-imidazole-4-sulfonic acid [1-(3,5-difluoro-benzyl)-3-(2-nitro-phenylsulfanyl)-1H-indol-6-yl]-amide] | – | – | > 80 | + (between 1% and 5%) | – |
| CN(C)C(=O)c1ccc2c(Sc3ccccc3[N+](=O)[O-])cn(Cc3ccccn3)c2c1 [Compound 109, 3-(2-Nitro-phenylsulfanyl)-1-pyridin-2-ylmethyl-1H-indole-6-carboxylic acid dimethylamide] | – | – | > 80 | + (between 1% and 5%) | – |
| CNC(=O)c1ccc2c(Sc3ccccc3[N+](=O)[O-])cn(Cc3ccccn3)c2c1 [Compound 110, 3-(2-Nitro-phenylsulfanyl)-1-pyridin-2-ylmethyl-1H-indole-6-carboxylic acid methylamide] | – | – | 50 to 80 | + (between 1% and 5%) | – |
| NC(=O)c1ccc2c(Sc3ccccc3[N+](=O)[O-])cn(Cc3ccccn3)c2c1 [Compound 111, 3-(2-Nitro-phenylsulfanyl)-1-pyridin-2-ylmethyl-1H-indole-6-carboxylic acid amide] | – | – | 20 to 50 | ± (between 0.1% and 1%) | – |
| CNC(=O)c1ccc2c(Sc3ccccc3[N+](=O)[O-])cn(Cc3cccnc3)c2c1 [Compound 112, 3-(2-Nitro-phenylsulfanyl)-1-pyridin-3-ylmethyl-1H-indole-6-carboxylic acid methylamide] | – | – | 20 to 50 | + (between 1% and 5%) | – |
| CCNC(=O)c1ccc2c(Sc3ccccc3[N+](=O)[O-])cn(Cc3cccnc3)c2c1 [Compound 113, 3-(2-Nitro-phenylsulfanyl)-1-pyridin-3-ylmethyl-1H-indole-6-carboxylic acid ethylamide] | – | – | 50 to 80 | + (between 1% and 5%) | – |
